Legend:
[1] = tested on: S. cerevisiae pPLUCΔP biosensor; experiment: S. cerevisiae pPLUCΔP biosensor luminescence toxicity assay; conditions: for detection of toxic substance by change in luminescence: 10 min exposure, toxicant at pH 5.5, FIGS. 5 and 6
Protocol: In vivo luciferase activity assays using S. cerevisiae require acidification to allow the substrate for the light reaction (luciferin) to freely enter intact cells. Therefore, a two-step assay procedure was designed to incorporate separate toxicity analysis without pH adjustment and subsequent acidification for luminescence quantification. In preparation for the assay, S. cerevisiae cells were harvested at peak luminescence (around 3 to 4×10^8 cells/ml), centrifuged at 700 g (3000 rpm) and washed twice in 5 mM KCl; keeping the original volume constant for the first wash, but halved for second wash (allowing for modified dilution in assay). The first step (exposure), 50 μl of washed S. cerevisiae cells are added to a 450 μl sample (pH generally not important). In an alternative procedure the S. cerevisiae can also be resuspended in water rather than in 5 mM Kcl. The second step (acificiation), 500 μl citrate phosphate buffer (pH2.5), also containing the luciferan (0.1 mM final concentration in 1 ml sample), are added to make up 1 ml total volume for subsequent luminescence quantification. The exposure time is generally 10 minutes, but this can be lengthened or shortened depending on assay requirements (e.g. FIGS. 10a, 10b and 11). The assay allows for the full pH durability of S. cerevisiae to be exploited as prior pH adjustment of samples is not required. Luminescence of the sample containing cuvettes are compared to a blank containing diluent(s) used in the assay. This blank defines 100% luminescence.
Dilutions were then made of the stock solutions using deionised water adjusted to pH5.5, as above. The cells were harvested at peak luminescence, centrifuged at 700 g and washed twice in 5 M KCl; keeping the original volume constant. The toxicant (450 μl) was added to each cuvette. The final volume was then made up to 500 μl using 3 to 4×10^7 cells. After 10 min, 500 μl of citrate phosphate buffer (pH 2.5) containing 5 μl of 20 mM luciferin was added to each cuvette and the bioluminescence was monitored.

[2] = tested on: non-dividing LucΔ S. cerevisiae strain cells; experiment: Non-dividing cell assay, light output, 96-well plates; type: cell-based, Saccharomyces cerevisiae; conditions: dilutions in 4.5% ethanol, cells in ddH2O, exposure 3, 5, 7, 9 h
Protocol: (§1) The following procedure was designed to monitor the effect of increasing the exposure time up to 9 hours and to determine the different responses of dividing and non-dividing biosensor cells to the presence of DNA-damaging agents. For assay preparation, the diluent used was ethanol at 4.5% final concentration. All ethidium bromide dilution standards were prepared in glassware. […] The black 96-well plates were covered with a plate sealer and incubated at 30° C. before and between readings. […] Additional of 100 μl citrate phosphate buffer (pH 2.5), containing 0.2 mM luciferin, was performed at each time point before luminescence quantification in a Lucy Anthos 1 luminometer using the Stingray (v2.0b31) software package. Following luminescence quantification 100 μl was removed from the blank well in the dividing assays for OD600 measurements and cell counts. […]
In FIG. 14, the effect of ethidium bromide on non-dividing cells was measured by recording the light output from cells in wells containing ethidium bromide dilutions prepared in 4.5% ethanol. […]

[3] = tested on: dividing LucΔ S. cerevisiae strain cells; experiment: Dividing cell assay, luciferase activity, 96-well plates; type: cell-based, Saccharomyces cerevisiae; conditions: dilutions in 4.5% ethanol, 1x SC (-ura), exposure 3, 5, 7, 9 h
Protocol: as §1
Thus in FIG. 13, the effect of ethidium bromide on dividing cells was measured by recording luciferase activity from cells in wells containing ethidium bromide dilutions prepared in 4.5% ethanol. […]

SMILES	detection of toxic substance by change in luminescence [1]	detection of copper after 48 hours growth of the biosensor ([1]; 10 min copper exposure, sensor cells used after 48 hours, FIG. 11)	effect on non-dividing cells (light output) [2]	effect on dividing cells (luciferase activity) [3]
Oc1cc(Cl)cc(Cl)c1 [3,5-dichlorophenol]	can detect	–	–	–
[Cu] [copper]	can detect	still actively detecting	–	–
CC[n+]1c(-c2ccccc2)c2cc(N)ccc2c2ccc(N)cc21 [ethidium bromide]	–	–	no clear toxic effect	clear decrease in cell division

From patent publication US6406856B1, “Biosensor” (Aberdeen University, priority 1998, dated 2002)
